According to publication PMC6934184, “Selective DNA-PKcs inhibition extends the therapeutic index of localized radiotherapy and chemotherapy” (The Journal of Clinical Investigation, 2019):

Target: T1, MAP3K7/MAP3K7IP1 (TAK1-TAB1) (Homo sapiens, UniProt O43318)
T1 construct: purchased Thermo Fisher Scientific (Life Technologies) SelectScreen
Assay: SelectScreen LanthaScreen
Type: binding
Conditions: read-out: % displacement
Outline: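 NU5455 was profiled across the SelectScreen Broad panel of kinase activity and binding assays. Z'LYTE reactions such as CSF1R ran at apparent Km ATP, while the Adapta CAMK1 assay used ATP listed as 10. Values are given as percent.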

T1 sequence (O43318 1-303 limits assumed): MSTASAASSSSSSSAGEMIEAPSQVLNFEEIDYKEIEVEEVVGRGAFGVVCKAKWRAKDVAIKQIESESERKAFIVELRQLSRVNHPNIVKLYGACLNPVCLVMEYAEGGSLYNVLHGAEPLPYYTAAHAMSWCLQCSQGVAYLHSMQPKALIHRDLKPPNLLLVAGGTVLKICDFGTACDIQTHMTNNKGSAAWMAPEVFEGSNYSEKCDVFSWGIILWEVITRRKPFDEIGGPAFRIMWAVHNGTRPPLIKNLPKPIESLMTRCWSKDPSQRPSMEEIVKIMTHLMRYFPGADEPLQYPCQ
T1 sequence (Q15750 437-504 partner limits assumed): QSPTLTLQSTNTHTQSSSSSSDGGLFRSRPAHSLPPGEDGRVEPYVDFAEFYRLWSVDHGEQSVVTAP

CN(C(=O)CN1CCOCC1)c1ccc2sc3c(-c4cccc5c(=O)cc(N6CC7CCC(C6)O7)oc45)cccc3c2c1 [NU5455]
inhibition at 1 µM: -3.4%
